Starred links: 1 amine or outer side, 2 acyl side, 3 side chain; linkers in the order of their positions; H or OH if unused. Non-standard residues stand in square brackets, D forms with d. Residues, ends and D or L forms follow the SMILES beside them. *: point of attachment. FITC = O=C1OC2(c3ccc(O)cc3Oc3cc(O)ccc32)c2ccc(NC(=S)*)cc21; DOTA = O=C(O)CN1CCN(CC(=O)O)CCN(CC(=O)*)CCN(CC(=O)O)CC1; X2 = O=C(O)CCC(NC(=O)NC(CCCCN*)C(=O)O)C(=O)O; 2Nal = N[CH](Cc1ccc2ccccc2c1)C(=O)O; X1 = O=C(C1CCC(CN[*:1])CC1)[*:2]
How the values were obtained:
PSMA = target: T1, PSMA (Homo sapiens, UniProt Q04609); assay: Competitive cell binding assay (radioligand 68Ga-PSMA-10); details: free ligands, mean ± SD, n = 3; for Ki: Ki=IC50/(1+cradioligand/Kd); for IC50: radioligand 68Ga-PSMA-10, 0.75 nmol/L
T1 construct: LNCaP cells (CRL-1740; ATCC; PSMA-positive); host or cells: LNCaP cells
Procedure: (§1) LNCaP cells (CRL-1740; ATCC; PSMA-positive) and PC-3 cells (CRL-1435; ATCC; PSMA-negative) were cultured in RPMI medium (Thermo Fisher Scientific, Waltham, MA, USA) supplemented with 10% fetal calf serum and 2 mmol/L L-glutamine (all from (Thermo Fisher Scientific, Waltham, MA, USA) ) at 37 °C in humidified air with 5% CO2. Cells were harvested using trypsin-ethylenediaminetetraacetic acid (trypsin-EDTA; 0.25% trypsin, 0.02% EDTA, Invitrogen, Waltham, MA, USA). Cell line authentication was regularly performed. Binding affinities and internalization profiles of the ^68Ga-labeled compounds were determined in competitive cell binding assays and internalization experiments as described previously.

LNCaP cells = assay: Specific cell surface binding and internalization of 68Ga-labeled compounds; type: cell-based; details: 68Ga-labeled compounds; blockage with 500 µmol/L 2-PMPA; mean ± SD, n = 3
Procedure: as §1

[1] = Lipophilicity, logD at pH 7.4 in n-octanol/PBS; type: physicochemical; details: 68Ga-labeled ligand
Procedure: The synthesis was performed according to previously published protocols. Details on synthesis and analytical data of the compounds are provided in the Supplementary Materials (Compound Synthesis and Analytical Characterization). […] Using 30% NaOH (Sigma-Aldrich, Darmstadt, Germany) and 10% NaOH (Sigma-Aldrich, Darmstadt, Germany), the pH was adjusted to 3.8. The reaction mixture was incubated at 98 °C for 5–10 min. The radiochemical yield was analyzed by reversed-phase high-performance liquid chromatography (RP-HPLC) or reversed-phase thin-layer chromatography (RP-TLC, 60 RP-18 F254S, Sigma-Aldrich, Darmstadt, Germany) with 0.5 M ammonium acetate/methanol (1:1) as the mobile phase. The lipophilicity of the ^68Ga-labeled compounds was determined using the 2-phase system n-octanol and PBS.

[2] = system: LNCaP-tumor bearing BALB/c nu/nu mice; details: compared with PSMA-927; cited from earlier work

T1 sequence (Q04609 whole entry): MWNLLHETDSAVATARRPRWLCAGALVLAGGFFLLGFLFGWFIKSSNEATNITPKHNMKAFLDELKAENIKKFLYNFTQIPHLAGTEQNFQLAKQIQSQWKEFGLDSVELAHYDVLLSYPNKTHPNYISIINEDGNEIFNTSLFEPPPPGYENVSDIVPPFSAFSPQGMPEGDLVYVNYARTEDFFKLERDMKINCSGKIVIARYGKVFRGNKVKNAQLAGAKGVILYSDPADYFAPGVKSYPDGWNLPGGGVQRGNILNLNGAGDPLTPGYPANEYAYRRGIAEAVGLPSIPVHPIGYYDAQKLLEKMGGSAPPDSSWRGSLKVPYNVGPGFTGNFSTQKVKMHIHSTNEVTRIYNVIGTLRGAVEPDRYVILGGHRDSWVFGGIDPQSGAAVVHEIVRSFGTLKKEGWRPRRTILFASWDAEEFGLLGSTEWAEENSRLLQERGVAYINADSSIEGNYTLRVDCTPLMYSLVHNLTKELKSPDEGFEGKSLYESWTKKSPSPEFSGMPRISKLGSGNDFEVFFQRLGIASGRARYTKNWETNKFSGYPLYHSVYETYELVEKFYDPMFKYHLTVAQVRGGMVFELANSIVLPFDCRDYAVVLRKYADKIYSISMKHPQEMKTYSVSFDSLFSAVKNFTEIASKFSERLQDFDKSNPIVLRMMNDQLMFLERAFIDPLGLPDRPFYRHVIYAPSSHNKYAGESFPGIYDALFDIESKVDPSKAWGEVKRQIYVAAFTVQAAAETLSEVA

Row | Compound | Ki (PSMA) [nM] | IC50 (PSMA) [nM] | Lipophilicity logDpH 7.4 n-octanol/PBS [1] | Specifically Cell Surface Bound (LNCaP cells) [%AR/10^5 Cells] | Specifically Internalized (LNCaP cells) [%AR/10^5 Cells] | tumor enhancement after dye conjugation [2]
1 | O=C(O)CCC(NC(=O)NC(CCCCNC(=O)C(Cc1ccc2ccccc2c1)NC(=O)C1CCC(CNC(=O)C(CCCCNC(=S)Nc2ccc3c(c2)C(=O)OC32c3ccc(O)cc3Oc3cc(O)ccc32)NC(=O)C(CCC(=O)O)NC(=O)CN2CCN(CC(=O)O)CCN(CC(=O)O)CCN(CC(=O)O)CC2)CC1)C(=O)O)C(=O)O (stereo not drawn) [PSMA-922, Glu-urea-Lys-2-Nal-Chx-Lys(Fluorescein)-E1-DOTA] | 5.78 ± 1.32 | 6.93 ± 1.29 | -2.07 ± 0.06 | 6.33 ± 1.53 | 13.74 ± 5.75 | 
2 | O=C(O)CCC(NC(=O)NC(CCCCNC(=O)C(Cc1ccc2ccccc2c1)NC(=O)C1CCC(CNC(=O)C(CCCCNC(=S)Nc2ccc3c(c2)C(=O)OC32c3ccc(O)cc3Oc3cc(O)ccc32)NC(=O)C(CCC(=O)O)NC(=O)C(CCC(=O)O)NC(=O)CN2CCN(CC(=O)O)CCN(CC(=O)O)CCN(CC(=O)O)CC2)CC1)C(=O)O)C(=O)O (stereo not drawn) [PSMA-923, Glu-urea-Lys-2-Nal-Chx-Lys(Fluorescein)-E2-DOTA] ({DOTA}-EEK(FITC)[X1][2Nal]-X2; configuration not given here) | 5.95 ± 1.99 | 7.14 ± 1.95 | -2.16 ± 0.04 | 9.82 ± 0.67 | 21.55 ± 9.24 | 
3 | O=C(O)CCC(NC(=O)NC(CCCCNC(=O)C(Cc1ccc2ccccc2c1)NC(=O)C1CCC(CNC(=O)C(CCCCNC(=O)CN2CCN(CC(=O)O)CCN(CC(=O)O)CCN(CC(=O)O)CC2)NC(=S)Nc2ccc3c(c2)C(=O)OC32c3ccc(O)cc3Oc3cc(O)ccc32)CC1)C(=O)O)C(=O)O (stereo not drawn) [PSMA-924, Glu-urea-Lys-2-Nal-Chx-Lys(DOTA)-Fluorescein] | 3.87 ± 1.76 | 4.64 ± 1.23 | -2.38 ± 0.07 | 1.11 ± 0.81 | 1.11 ± 0.94 | 
4 | [^68Ga]Ga-Glu-urea-Lys-(HE)3-HBED-CC-IRDye800CW |  |  |  |  |  | significantly higher tumor enhancement
5 | [^68Ga]Ga-Glu-urea-Lys-HBED-CC-IRDye800CW |  |  |  |  |  | significantly higher tumor enhancement

Further lines, with some results ahead:

Row | Ki (PSMA) [nM] | IC50 (PSMA) [nM] | Lipophilicity logDpH 7.4 n-octanol/PBS [1] | Compound | Specifically Cell Surface Bound (LNCaP cells) [%AR/10^5 Cells] | Specifically Internalized (LNCaP cells) [%AR/10^5 Cells] | tumor enhancement after dye conjugation [2]
6 | 4.03 ± 0.95 | 4.83 ± 0.93 | -2.36 ± 0.03 | O=C(O)CCC(NC(=O)NC(CCCCNC(=O)C(Cc1ccc2ccccc2c1)NC(=O)C1CCC(CNC(=O)C(CCCCNC(=S)Nc2ccc3c(c2)C(=O)OC32c3ccc(O)cc3Oc3cc(O)ccc32)NC(=O)CN2CCN(CC(=O)O)CCN(CC(=O)O)CCN(CC(=O)O)CC2)CC1)C(=O)O)C(=O)O (stereo not drawn) [PSMA-921, Glu-urea-Lys-2-Nal-Chx-Lys(Fluorescein)-DOTA] | 7.06 ± 3.32 | 15.82 ± 6.18 | 
7 | 6.77 ± 3.66 | 8.12 ± 3.59 | -2.05 ± 0.02 | O=C(O)CCC(NC(=O)NC(CCCCNC(=O)C(Cc1ccc2ccccc2c1)NC(=O)C1CCC(CNC(=O)C(CCCCNC(=O)CN2CCN(CC(=O)O)CCN(CC(=O)O)CCN(CC(=O)O)CC2)NC(=O)C(CCC(=O)O)NC(=S)Nc2ccc3c(c2)C(=O)OC32c3ccc(O)cc3Oc3cc(O)ccc32)CC1)C(=O)O)C(=O)O (stereo not drawn) [PSMA-925, Glu-urea-Lys-2-Nal-Chx-Lys(DOTA)-E1- Fluorescein] | 2.67 ± 0.95 | 3.03 ± 2.17 | 
8 | 7.16 ± 2.63 | 8.59 ± 2.57 | -2.13 ± 0.03 | O=C(O)CCC(NC(=O)NC(CCCCNC(=O)C(Cc1ccc2ccccc2c1)NC(=O)C1CCC(CNC(=O)C(CCCCNC(=O)CN2CCN(CC(=O)O)CCN(CC(=O)O)CCN(CC(=O)O)CC2)NC(=O)C(CCC(=O)O)NC(=O)C(CCC(=O)O)NC(=S)Nc2ccc3c(c2)C(=O)OC32c3ccc(O)cc3Oc3cc(O)ccc32)CC1)C(=O)O)C(=O)O (stereo not drawn) [PSMA-926, Glu-urea-Lys-2-Nal-Chx-Lys(DOTA)-E2-Fluorescein] ({FITC}-EEK(DOTA)[X1][2Nal]-X2; configuration not given here) | 10.12 ± 4.85 | 11.86 ± 5.31 | 

Reference: PMC8954540, “A New Class of PSMA-617-Based Hybrid Molecules for Preoperative Imaging and Intraoperative Fluorescence Navigation of Prostate Cancer” (Pharmaceuticals, 2022)
